Experimental data as given in paper PMC8849072, “Sudapyridine (WX-081), a Novel Compound against Mycobacterium tuberculosis” (Microbiology Spectrum, 2022).
In brackets after ≈: the same amount, converted by molar mass.

Columns and labels:
[1] = biological target: T1, human ether-á-go-go-related (hERG) ion channel (Homo sapiens, UniProt Q12809); assay: hERG manual patch-clamp assay in hERG-CHO cell; type: cell-based
T1 construct: expressed in transfected cells; host or cells: hERG-CHO cell (CHO cells expressing hERG)
T1 sequence (Q12809 whole entry): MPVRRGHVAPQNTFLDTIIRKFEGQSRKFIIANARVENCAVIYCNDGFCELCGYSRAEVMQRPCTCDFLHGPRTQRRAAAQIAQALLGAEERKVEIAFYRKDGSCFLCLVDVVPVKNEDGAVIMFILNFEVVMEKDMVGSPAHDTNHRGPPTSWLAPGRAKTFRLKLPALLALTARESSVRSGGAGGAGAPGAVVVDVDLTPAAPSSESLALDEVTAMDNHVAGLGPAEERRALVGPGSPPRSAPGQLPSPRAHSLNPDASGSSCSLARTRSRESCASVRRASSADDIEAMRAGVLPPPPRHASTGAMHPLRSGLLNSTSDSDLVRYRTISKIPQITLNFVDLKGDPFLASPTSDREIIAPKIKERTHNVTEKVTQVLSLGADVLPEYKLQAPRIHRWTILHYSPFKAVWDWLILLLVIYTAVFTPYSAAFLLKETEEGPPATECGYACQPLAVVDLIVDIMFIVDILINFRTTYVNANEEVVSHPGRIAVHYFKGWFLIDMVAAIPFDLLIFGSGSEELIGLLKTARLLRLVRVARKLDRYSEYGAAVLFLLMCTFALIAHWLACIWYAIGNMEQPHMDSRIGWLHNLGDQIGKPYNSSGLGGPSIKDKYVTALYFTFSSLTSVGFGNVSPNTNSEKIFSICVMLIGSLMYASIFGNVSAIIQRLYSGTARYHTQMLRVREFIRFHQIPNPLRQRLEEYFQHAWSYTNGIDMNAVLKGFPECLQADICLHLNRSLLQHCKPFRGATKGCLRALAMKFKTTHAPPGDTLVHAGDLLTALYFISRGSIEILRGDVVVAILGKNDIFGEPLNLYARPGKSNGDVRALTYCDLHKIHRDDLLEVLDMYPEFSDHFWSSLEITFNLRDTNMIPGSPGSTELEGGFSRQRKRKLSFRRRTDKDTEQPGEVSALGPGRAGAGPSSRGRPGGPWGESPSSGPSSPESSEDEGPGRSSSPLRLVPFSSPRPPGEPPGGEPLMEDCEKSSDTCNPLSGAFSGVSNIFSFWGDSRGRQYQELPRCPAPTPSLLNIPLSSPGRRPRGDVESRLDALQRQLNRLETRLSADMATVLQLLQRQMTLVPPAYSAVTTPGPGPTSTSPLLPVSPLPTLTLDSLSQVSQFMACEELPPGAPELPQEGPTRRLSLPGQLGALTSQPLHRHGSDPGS
Method: A human ether-á-go-go-related (hERG) ion channel in vitro assay was performed in Shanghai Institute of Materia Medica, Shanghai, for the evaluation of cardiac liability testing. The assay was a manual patch-clamp method using electrophysiology in an hERG-CHO cell.

[2] = 14-day repeated oral dose toxicity and toxicokinetic head-to-head study in beagle dogs; type: in vivo, beagle dog; conditions: 14 days; for ECG: QT interval / cTnI: 200 mg/kg; for cTnI: one of three males, all others BLQ
[3] = test system: M. tuberculosis susceptible strain 14480; assay: MIC by microplate alamarBlue assay (MABA); type: cell-based, Mycobacterium tuberculosis; conditions: for MIC: Mycobacterium tuberculosis
[4] = test system: M. tuberculosis susceptible strain 14286; assay: MIC by microplate alamarBlue assay (MABA); type: cell-based, Mycobacterium tuberculosis; conditions: for MIC: Mycobacterium tuberculosis
[5] = test system: M. tuberculosis susceptible strain 14242; assay: MIC by microplate alamarBlue assay (MABA); type: cell-based, Mycobacterium tuberculosis; conditions: for MIC: Mycobacterium tuberculosis
[6] = test system: M. tuberculosis susceptible strain 14241; assay: MIC by microplate alamarBlue assay (MABA); type: cell-based, Mycobacterium tuberculosis; conditions: for MIC: Mycobacterium tuberculosis
[7] = test system: M. tuberculosis susceptible strain 14280; assay: MIC by microplate alamarBlue assay (MABA); type: cell-based, Mycobacterium tuberculosis; conditions: for MIC: Mycobacterium tuberculosis
M. tuberculosis H37Rv [8] = assay: MIC by microplate alamarBlue assay (MABA); type: cell-based, Mycobacterium tuberculosis; conditions: for MIC: Mycobacterium tuberculosis, H37RV
[9] = cited from earlier work
[10] = Pharmacokinetic study in rats; type: in vivo, rat; conditions: Rat; for At 96 h lung/plasma: lung: lung exposure at 96 h (first number of the pair); for At 96 h lung/plasma: plasma: plasma exposure at 96 h (second number of the pair); for AUC(0-inf): read-out: AUC0-inf; for AUC(0-t): read-out: AUC0-last; for half-life: plasma
Method: (§1) The BALB/c mice, rats, and beagle dogs were used in the PK study and fasted overnight before dosing. Animal doses were administered in two ways. […] Plasma samples were collected from three animals at each time point. Plasma concentrations were determined by liquid chromatography-tandem mass spectrometry (LC-MS/MS). The bioanalytical method by LC-MS/MS for pharmacokinetic (PK) studies in animal and toxicokinetic (TK) in tox studies have been validated. The total area under the concentration-time curve (AUC0-inf), the elimination half-time (t1/2), the peak concentration (Cmax), and the time to reach peak concentration (Tmax) of samples were determined directly from the experimental data using WinNonlin V6.2.1.

M. tuberculosis H37Rv [11] = assay: MBC determination (CFU-based); conditions: 7 days incubation, 3 log10 CFU decrease
[12] = Pharmacokinetic study in mice; type: in vivo, BALB/c mice; conditions: Mice; for AUC(0-inf): read-out: AUC0-inf; for AUC(0-t): read-out: AUC0-last; for half-life: plasma; for At 96 h lung/plasma: lung: lung exposure at 96 h (first number of the pair); for At 96 h lung/plasma: plasma: plasma exposure at 96 h (second number of the pair)
Method: as §1

[13] = test system: M. tuberculosis susceptible strain 14242; assay: MBC determination (CFU-based); conditions: 7 days incubation, 3 log10 CFU decrease
[14] = beagle dogs, 200 mg/kg oral, listed as bedaquiline fumarate
[15] = BALB/c, mouse, in vivo, Iv. 1.0 mg/kg
[16] = BALB/c, mouse, in vivo, Po. 6.25 mg/kg

SMILES: CNCC[C@@](O)(c1cccc2ccccc12)[C@H](c1ccccc1)c1cc2cc(Br)ccc2nc1OC [BDQ-M2]
- IC50 ([1]; metabolites): 1730 nM

SMILES: COc1nc2ccc(Br)cc2cc1[C@@H](c1ccccc1)[C@@](O)(CCN(C)C)c1cccc2ccccc12.O=C(O)/C=C/C(=O)O [Bedaquiline fumarate, bedaquiline fumarate]
- mortality and moribundity ([2]; 200 mg/kg oral once daily, male and female dogs): did not result in mortality and moribundity
- ECG: HR ([2]; beagle dogs, 200 mg/kg oral): An increased incidence of first- and second-degree atrioventricular block
- qualitative ECG changes associated with oral administration ([2]; beagle dogs, 200 mg/kg oral): increased incidence of first and second-degree atrioventricular (AV) block
- ECG: QT interval ([2]; beagle dogs, 200 mg/kg oral): Significant QT interval prolongation
- ECG: QT interval [2, 14]: significant QTc interval prolongation
- cTnI ([2]; beagle dogs, 200 mg/kg oral): 440 (1/3 male) pg/mL
- cTnI [2, 14]: 440 pg/mL
- IC50 ([1]; parent compound): > 30000 nM

SMILES: CO[C@H]1/C=C/O[C@@]2(C)Oc3c(C)c(O)c4c(O)c(c(/C=N/N5CCN(C)CC5)c(O)c4c3C2=O)NC(=O)/C(C)=C\C=C\[C@H](C)[C@H](O)[C@@H](C)[C@@H](O)[C@@H](C)[C@H](OC(C)=O)[C@@H]1C [RFP, rifampicin]
- MIC [3]: 0.046 µg/mL (≈ 0.0559 µM)
- MIC [4]: < 0.02 µg/mL
- MIC [5]: 0.066 µg/mL (≈ 0.0802 µM)
- MIC [6]: 0.035 µg/mL (≈ 0.0425 µM)
- MIC [7]: 0.057 µg/mL (≈ 0.0693 µM)
- MIC (M. tuberculosis H37Rv [8]): 0.014 µg/mL (≈ 0.017 µM)

SMILES: NNC(=O)c1ccncc1 [INH, isoniazid]
- MIC [3]: < 0.02 µg/mL
- MIC [4]: 0.03 µg/mL (≈ 0.219 µM)
- MIC [5]: 0.028 µg/mL (≈ 0.204 µM)
- MIC [6]: 0.034 µg/mL (≈ 0.248 µM)
- MIC [7]: 0.024 µg/mL (≈ 0.175 µM)
- MIC (M. tuberculosis H37Rv [8]): 0.031 µg/mL (≈ 0.226 µM)

SMILES: COc1c(N2C[C@@H]3CCCN[C@@H]3C2)c(F)cc2c(=O)c(C(=O)O)cn(C3CC3)c12 [MFX, moxifloxacin]
- MIC [4]: 0.039 µg/mL (≈ 0.0972 µM)
- MIC [5]: 0.037 µg/mL (≈ 0.0922 µM)
- MIC [6]: 0.122 µg/mL (≈ 0.304 µM)
- MIC [7]: 0.035 µg/mL (≈ 0.0872 µM)
- MIC (M. tuberculosis H37Rv [8]): 0.045 µg/mL (≈ 0.112 µM)

SMILES: COc1nc2ccc(Br)cc2cc1[C@@H](c1ccccc1)[C@@](O)(CCN(C)C)c1cccc2ccccc12 [BDQ, bedaquiline]
- MIC [3]: 0.037 µg/mL (≈ 0.0666 µM)
- MIC [4]: 0.043 µg/mL (≈ 0.0774 µM)
- MIC [5]: 0.031 µg/mL (≈ 0.0558 µM)
- MIC [6]: 0.029 µg/mL (≈ 0.0522 µM)
- elimination half-life [9]: 5.5 months
- At 96 h lung/plasma: lung ([10]; Iv. 1.0 mg/kg): 62.9
- At 96 h lung/plasma: plasma ([10]; Iv. 1.0 mg/kg): 1.89
- At 96 h lung/plasma: lung ([10]; Po. 5.0 mg/kg): 58.8
- At 96 h lung/plasma: plasma ([10]; Po. 5.0 mg/kg): 1.52
- AUC(0-inf) ([10]; in vivo, Iv. 1.0 mg/kg): 1930 ng·h/mL
- AUC(0-t) ([10]; in vivo, Iv. 1.0 mg/kg): 1830 ng·h/mL
- Vd ([10]; in vivo, Iv. 1.0 mg/kg, read-out: Vdss): 10.3 L/kg
- AUC(0-inf) ([10]; in vivo, Po. 5.0 mg/kg): 2680 ng·h/mL
- AUC(0-t) ([10]; in vivo, Po. 5.0 mg/kg): 2610 ng·h/mL
- Cmax ([10]; in vivo, Po. 5.0 mg/kg, read-out: Cmax): 354 ng/mL
- bioavailability ([10]; in vivo, Po. 5.0 mg/kg, read-out: F): 27.7%
- Tmax ([10]; in vivo, Po. 5.0 mg/kg, read-out: Tmax): 0.83 h
- half-life ([10]; Iv. 1.0 mg/kg): 37.6 h
- half-life ([10]; Po. 5.0 mg/kg): 29.3 h
- MIC [7]: 0.053 µg/mL (≈ 0.0954 µM)
- MBCs (M. tuberculosis H37Rv [11]): 0.156 µg/mL
- AUC(0-inf) [12, 15]: 2160 ng·h/mL
- AUC(0-t) [12, 15]: 2100 ng·h/mL
- Vd ([12]; BALB/c, mouse, in vivo, Iv. 1.0 mg/kg, read-out: Vdss): 6.21 L/kg
- AUC(0-inf) [12, 16]: 6360 ng·h/mL
- AUC(0-t) [12, 16]: 6040 ng·h/mL
- Cmax ([12]; BALB/c, mouse, in vivo, Po. 6.25 mg/kg, read-out: Cmax): 608 ng/mL
- bioavailability ([12]; BALB/c, mouse, in vivo, Po. 6.25 mg/kg, read-out: F): 47.1%
- Tmax ([12]; BALB/c, mouse, in vivo, Po. 6.25 mg/kg, read-out: Tmax): 5.33 h
- half-life ([12]; BALB/c, mouse, Iv. 1.0 mg/kg): 21.3 h
- half-life ([12]; BALB/c, mouse, Po. 6.25 mg/kg): 47.6 h
- At 96 h lung/plasma: lung ([12]; Iv. 1.0 mg/kg): 27.1
- At 96 h lung/plasma: plasma ([12]; Iv. 1.0 mg/kg): 1.31
- At 96 h lung/plasma: lung ([12]; Po. 6.25 mg/kg): 135
- At 96 h lung/plasma: plasma ([12]; Po. 6.25 mg/kg): 4.56
- MIC (M. tuberculosis H37Rv [8]): 0.012 µg/mL (≈ 0.0216 µM)
- MBCs [13]: 0.156 µg/mL

SMILES: NC[C@H]1O[C@H](O[C@H]2[C@H](O)[C@@H](O[C@H]3O[C@H](CO)[C@@H](O)[C@H](N)[C@H]3O)[C@H](N)C[C@@H]2N)[C@H](O)[C@@H](O)[C@@H]1O [KM, kanamycin]
- MICs [3]: 1.907 µg/mL
- MICs [4]: 1.154 µg/mL
- MICs [5]: 1.146 µg/mL
- MICs [6]: 2.417 µg/mL
- MICs [7]: 1.219 µg/mL
- MICs (M. tuberculosis H37Rv [8]; H37Rv): 0.730 µg/mL
